Laboratory results as given in BigSolDB 2.1.

CC(=O)N1CCN(c2ccc(OC[C@@H]3CO[C@@](Cn4ccnc4)(c4ccc(Cl)cc4Cl)O3)cc2)CC1 (racemic)
Details | solubility (mole fraction)
in PEG-200, 298.2 K | 0.00611
in PEG-200, 303.2 K | 0.00718
in PEG-200, 308.2 K | 0.00908
in PEG-200, 313.2 K | 0.0118
in PEG-200, 318.2 K | 0.0144

in water
Details | solubility (mole fraction)
298.2 K | 4e-07
303.2 K | 5e-07
308.2 K | 5e-07
313.2 K | 7e-07
318.2 K | 9e-07
